# Test results as given in patent US20100298141A1, “SUBSTITUTED PYRIDINE N-OXIDE HERBICIDES” (E. I. DU PONT DE NEMOURS AND COMPANY, priority 2007, published 2010).
# Tests used:
# Experiment in all cases: Test F preemergence test
# Settings in all cases: scale 0 to 100
# bermudagrass = type: in vivo, Cynodon dactylon
# How it was run: (§1)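 Compounds in a non-phytotoxic solvent formulation with surfactant were applied before emergence after sowing, or, for sugarcane, also postemergence. Evaluation was visual, against controls, after 14 to 21 greenhouse days.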
# Surinam grass = type: in vivo, Brachiaria decumbens
# How it was run: as §1
# large crabgrass = type: in vivo, Digitaria sanguinalis
# How it was run: as §1
# goosegrass = type: in vivo, Eleusine indica
# How it was run: as §1
# johnsongrass = type: in vivo, Sorghum halepense
# How it was run: as §1
# kochia = type: in vivo, Kochia scoparia
# How it was run: as §1
# pitted morningglory = type: in vivo, Ipomoea lacunosa
# How it was run: as §1
# common ragweed = type: in vivo, Ambrosia elation
# How it was run: as §1
# mustard = type: in vivo, Brassica nigra
# How it was run: as §1
# guineagrass = type: in vivo, Panicum maximum
# How it was run: as §1
# dallisgrass = type: in vivo, Paspalum dilatatum
# How it was run: as §1
# barnyardgrass = type: in vivo, Echinochloa crus-galli
# How it was run: as §1
# prickly sida = type: in vivo, Sida spinosa
# How it was run: as §1
# Italian ryegrass = type: in vivo, Lolium multiflorum
# How it was run: as §1
# common purslane = type: in vivo, Portulaca oleracea
# How it was run: as §1
# broadleaf signalgrass = type: in vivo, Brachiaria platyphylla
# How it was run: as §1
# common groundsel = type: in vivo, Senecio vulgaris
# How it was run: as §1
# Virginia dayflower = type: in vivo, Commelina virginica
# How it was run: as §1
# naked crabgrass = type: in vivo, Digitaria nuda
# How it was run: as §1
# itchgrass = type: in vivo, Rottboellia cochinchinensis
# How it was run: as §1
# quackgrass = type: in vivo, Elytrigia repens
# How it was run: as §1
smiles,measurement,setting,value
Cc1cc[n+]([O-])c([S+]([O-])Cc2c(C(F)(F)F)nn(C)c2OCC(F)(F)F)c1 (racemic) [Compound 30],Bermudagrass plant response rating,"bermudagrass; 62 g ai/ha, Preemergence",98
same,Bermudagrass plant response rating,"bermudagrass; 125 g ai/ha, preemergence",100
same,"Plant response rating, Bermudagrass","bermudagrass; Preemergence, 16 g ai/ha",40
same,"Plant response rating, Bermudagrass","bermudagrass; Preemergence, 31 g ai/ha",80
same,Surinam Grass plant response rating,"Surinam grass; 62 g ai/ha, Preemergence",80
same,Surinam Grass plant response rating,"Surinam grass; 125 g ai/ha, preemergence",100
same,"Plant response rating, Surinam Grass","Surinam grass; Preemergence, 31 g ai/ha",75
same,"Crabgrass, Large plant response rating","large crabgrass; 62 g ai/ha, Preemergence",100
same,"Crabgrass, Large plant response rating","large crabgrass; 125 g ai/ha, preemergence",100
same,"Plant response rating, Crabgrass, Large","large crabgrass; Preemergence, 16 g ai/ha",40
same,"Plant response rating, Crabgrass, Large","large crabgrass; Preemergence, 31 g ai/ha",50
same,Goosegrass plant response rating,"goosegrass; 62 g ai/ha, Preemergence",90
same,Goosegrass plant response rating,"goosegrass; 125 g ai/ha, preemergence",98
same,"Plant response rating, Goosegrass","goosegrass; Preemergence, 16 g ai/ha",40
same,"Plant response rating, Goosegrass","goosegrass; Preemergence, 31 g ai/ha",75
same,Johnsongrass plant response rating,"johnsongrass; 62 g ai/ha, Preemergence",80
same,Johnsongrass plant response rating,"johnsongrass; 125 g ai/ha, preemergence",100
same,"Plant response rating, Johnsongrass","johnsongrass; Preemergence, 16 g ai/ha",40
same,"Plant response rating, Johnsongrass","johnsongrass; Preemergence, 31 g ai/ha",60
same,Kochia plant response rating,"kochia; 62 g ai/ha, Preemergence",95
same,Kochia plant response rating,"kochia; 125 g ai/ha, preemergence",95
same,"Plant response rating, Kochia","kochia; Preemergence, 16 g ai/ha",90
same,"Plant response rating, Kochia","kochia; Preemergence, 31 g ai/ha",90
same,Morningglory plant response rating,"pitted morningglory; 62 g ai/ha, Preemergence",90
same,Morningglory plant response rating,"pitted morningglory; 125 g ai/ha, preemergence",100
same,"Plant response rating, Morningglory","pitted morningglory; Preemergence, 16 g ai/ha",20
same,"Plant response rating, Morningglory","pitted morningglory; Preemergence, 31 g ai/ha",60
same,Ragweed plant response rating,"common ragweed; 62 g ai/ha, Preemergence",80
same,Ragweed plant response rating,"common ragweed; 125 g ai/ha, preemergence",95
same,"Plant response rating, Ragweed","common ragweed; Preemergence, 16 g ai/ha",50
same,"Plant response rating, Ragweed","common ragweed; Preemergence, 31 g ai/ha",60
same,Black Mustard plant response rating,"mustard; 62 g ai/ha, Preemergence",100
same,Black Mustard plant response rating,"mustard; 125 g ai/ha, preemergence",100
same,"Plant response rating, Black Mustard","mustard; Preemergence, 16 g ai/ha",70
same,"Plant response rating, Black Mustard","mustard; Preemergence, 31 g ai/ha",90
same,Guineagrass plant response rating,"guineagrass; 62 g ai/ha, Preemergence",100
same,Guineagrass plant response rating,"guineagrass; 125 g ai/ha, preemergence",100
same,"Plant response rating, Guineagrass","guineagrass; Preemergence, 16 g ai/ha",35
same,"Plant response rating, Guineagrass","guineagrass; Preemergence, 31 g ai/ha",100
same,Dallisgrass plant response rating,"dallisgrass; 62 g ai/ha, Preemergence",85
same,Dallisgrass plant response rating,"dallisgrass; 125 g ai/ha, preemergence",98
same,"Plant response rating, Dallisgrass","dallisgrass; Preemergence, 16 g ai/ha",50
same,"Plant response rating, Dallisgrass","dallisgrass; Preemergence, 31 g ai/ha",50
same,Barnyardgrass plant response rating,"barnyardgrass; 62 g ai/ha, Preemergence",95
same,Barnyardgrass plant response rating,"barnyardgrass; 125 g ai/ha, preemergence",100
same,"Plant response rating, Barnyardgrass","barnyardgrass; Preemergence, 16 g ai/ha",20
same,"Plant response rating, Barnyardgrass","barnyardgrass; Preemergence, 31 g ai/ha",75
same,Prickly Sida plant response rating,"prickly sida; 62 g ai/ha, Preemergence",95
same,Prickly Sida plant response rating,"prickly sida; 125 g ai/ha, preemergence",100
same,"Plant response rating, Prickly Sida","prickly sida; Preemergence, 16 g ai/ha",60
same,"Plant response rating, Prickly Sida","prickly sida; Preemergence, 31 g ai/ha",80
same,"Ryegrass, Italian plant response rating","Italian ryegrass; 62 g ai/ha, Preemergence",80
same,"Ryegrass, Italian plant response rating","Italian ryegrass; 125 g ai/ha, preemergence",95
same,"Plant response rating, Ryegrass, Italian","Italian ryegrass; Preemergence, 16 g ai/ha",60
same,"Plant response rating, Ryegrass, Italian","Italian ryegrass; Preemergence, 31 g ai/ha",70
same,Purslane plant response rating,"common purslane; 62 g ai/ha, Preemergence",75
same,Purslane plant response rating,"common purslane; 125 g ai/ha, preemergence",100
same,"Plant response rating, Purslane","common purslane; Preemergence, 16 g ai/ha",35
same,"Plant response rating, Purslane","common purslane; Preemergence, 31 g ai/ha",50
same,Signalgrass plant response rating,"broadleaf signalgrass; 62 g ai/ha, Preemergence",70
same,Signalgrass plant response rating,"broadleaf signalgrass; 125 g ai/ha, preemergence",90
same,"Plant response rating, Signalgrass","broadleaf signalgrass; Preemergence, 31 g ai/ha",65
same,Groundsel plant response rating,"common groundsel; 62 g ai/ha, Preemergence",90
same,Groundsel plant response rating,"common groundsel; 125 g ai/ha, preemergence",100
same,"Plant response rating, Groundsel","common groundsel; Preemergence, 16 g ai/ha",50
same,"Plant response rating, Groundsel","common groundsel; Preemergence, 31 g ai/ha",90
same,Dayflower plant response rating,"Virginia dayflower; 62 g ai/ha, Preemergence",90
same,Dayflower plant response rating,"Virginia dayflower; 125 g ai/ha, preemergence",100
same,"Plant response rating, Dayflower","Virginia dayflower; Preemergence, 16 g ai/ha",50
same,"Plant response rating, Dayflower","Virginia dayflower; Preemergence, 31 g ai/ha",70
same,"Crabgrass, Naked plant response rating","naked crabgrass; 62 g ai/ha, Preemergence",100
same,"Crabgrass, Naked plant response rating","naked crabgrass; 125 g ai/ha, preemergence",100
same,"Plant response rating, Crabgrass, Naked","naked crabgrass; Preemergence, 16 g ai/ha",80
same,"Plant response rating, Crabgrass, Naked","naked crabgrass; Preemergence, 31 g ai/ha",98
same,Itchgrass plant response rating,"itchgrass; 62 g ai/ha, Preemergence",70
same,Itchgrass plant response rating,"itchgrass; 125 g ai/ha, preemergence",85
same,"Plant response rating, Itchgrass","itchgrass; Preemergence, 16 g ai/ha",20
same,"Plant response rating, Itchgrass","itchgrass; Preemergence, 31 g ai/ha",25
same,Quackgrass plant response rating,"quackgrass; 62 g ai/ha, Preemergence",70
same,Quackgrass plant response rating,"quackgrass; 125 g ai/ha, preemergence",75
same,"Plant response rating, Quackgrass","quackgrass; Preemergence, 16 g ai/ha",15
same,"Plant response rating, Quackgrass","quackgrass; Preemergence, 31 g ai/ha",40
